According to patent publication US4450269A, “Mono-5-substituted-3-chloro-4H-1,2,6-thiadiazin-4-one antifungal agents” (FMC Corporation, priority 1980, dated 1984):
Where a name gives a salt, the structure may show the parent alone. Read-outs that look alike come from different tables or passages of the source.

How the values were obtained:
Uromyces phaseoli = assay: whole plant or invertebrate; details: foliar, read-out: Percent Disease Control, foliar, bean rust
Helminthosporium oryzae = assay: Mycelial growth test; details: for inhibition at 5 ppm / inhibition at 10 ppm / inhibition at 20 ppm / inhibition at 40 ppm: Bipolaris oryzae, 72 h; for Percent Fungus Growth Inhibition: HO, 72 hours
Description: HO = Helminthosporium oryzae
Aliquots of previously prepared solutions of active ingredient in acetone were added to tubes containing 20 ml of sterile, melted potato dextrose agar that had been cooled to 50° C. to provide mixtures of 40, 20, 10, 5 and 2.5 ppm. The tubes were shaken to ensure thorough mixing of the chemical with the agar, and the mixture poured into petri dishes having 4 quadrants to solidify. Each quadrant was inoculated with a 4 mm diameter disc of agar containing mycelium of the test fungi and incubated at 25° C. for 72 hours during which the samples were alternately exposed to light for 12 hours and to darkness for 12 hours. Growth was measured at the end of the incubation period by measuring the diameter of each fungus colony. Two measurements of the diameter, perpendicular to each other, were taken and the values averaged. Data are reported as percent inhibition (%I) by the following formula: [formula] Captan and chlorothalonil were used as standards for comparison.

[1] = read-out: Percent Fungus Growth Inhibition, HO, 5 ppm, 72 hours
[2] = read-out: Percent Fungus Growth Inhibition, HO, 10 ppm, 72 hours
[3] = read-out: Percent Fungus Growth Inhibition, HO, 20 ppm, 72 hours
[4] = read-out: Percent Fungus Growth Inhibition, HO, 40 ppm, 72 hours
[5] = read-out: Percent Fungus Growth Inhibition

Molecule	pest or weed control at 150 ppm (Uromyces phaseoli) [%]	inhibition at 5 ppm (Helminthosporium oryzae; [1]) [%]	inhibition at 10 ppm (Helminthosporium oryzae; [2]) [%]	inhibition at 20 ppm (Helminthosporium oryzae; [3]) [%]	inhibition at 40 ppm (Helminthosporium oryzae; [4]) [%]	also measured
Cc1cc(Oc2nsnc(Cl)c2=O)cc(C)c1Br [Compound 60, 3-[(4-bromo-3,5-dimethyl)-phenoxy]-5-chloro-4H--1,2,6-thiadiazin-4-one]	100	100	77	69	100	
3-chloro-5-(bromophenoxy)-4H-1,2,6-thiadiazin-4-one [Compound 33]						Percent Fungus Growth Inhibition (Helminthosporium oryzae; 5 ppm): 83%; Percent Fungus Growth Inhibition (Helminthosporium oryzae; 10 ppm): 91%; Percent Fungus Growth Inhibition (Helminthosporium oryzae; 20 ppm): 100%; Percent Fungus Growth Inhibition (Helminthosporium oryzae; 40 ppm): 100%
O=C(Nc1ccccc1)Oc1ccc(Oc2nsnc(Cl)c2=O)cc1 [Compound 37, 3-chloro-5-[4-(phenylaminocarbonyloxy)phenoxy]-4H-1,2,6,-thiadiazin-4-one]	100					inhibition at 5 ppm (Helminthosporium oryzae; [5]): 27%; inhibition at 10 ppm (Helminthosporium oryzae; [5]): 13%; inhibition at 20 ppm (Helminthosporium oryzae; [5]): 60%; inhibition at 40 ppm (Helminthosporium oryzae; [5]): 47%
O=C(O)c1ccc(Oc2nsnc(Cl)c2=O)cc1 [Compound 50, 3-(4-carboxyphenoxy)-5-chloro-4H--1,2,6-thiadiazin-4-one]	90	75	38	100	100	
O=c1c(Cl)nsnc1Oc1ccc(F)cc1 [Compound 11, 3-chloro-5-(4-fluorophenoxy)-4H--1,2,6-thiadiazin-4-one]	0	62	100	100	100	
CC(=O)c1ccc(Oc2nsnc(Cl)c2=O)cc1 [Compound 47, 3-(4-acetylphenoxy)-5-chloro-4H--1,2,6-thiadiazin-4-one]	0	75	88	100	100	
CC(=O)c1cccc(Oc2nsnc(Cl)c2=O)c1 [Compound 48, 3-(3-acetylphenoxy)-5-chloro-4H--1,2,6-thiadiazin-4-one]	100	100	63	100	100	
O=c1c(Cl)nsnc1Oc1ccc([N+](=O)[O-])cc1 [Compound 9, 3-chloro-5-(4-nitrophenoxy)-4H--1,2,6-thiadiazin-4-one]	98	50	82	86	100	
3-chloro-5-[methylaminocarbonyloxy)phenoxyl]-4H-1,2,6-thiadiazin-4-one [Compound 36]						Percent Fungus Growth Inhibition (Helminthosporium oryzae; 5 ppm): 78%; Percent Fungus Growth Inhibition (Helminthosporium oryzae; 10 ppm): 78%; Percent Fungus Growth Inhibition (Helminthosporium oryzae; 20 ppm): 89%; Percent Fungus Growth Inhibition (Helminthosporium oryzae; 40 ppm): 100%
O=c1c(Cl)nsnc1Oc1cccc(Cl)c1 [Compound 13, 3-chloro-5-(3-chlorophenoxy)-4H--1,2,6-thiadiazin-4-one]	100	71	86	76	81	
Cc1cc(Oc2nsnc(Cl)c2=O)cc(C)c1Cl [Compound 59, 3-chloro-5-[(4-chloro-3,5-dimethyl)phenoxy]-4H--1,2,6-thiadiazin-4-one]	0	100	100	100	100	
Cc1cc(Oc2nsnc(Cl)c2=O)ccc1Cl [Compound 54, 3-chloro-5-(4-chloro-3-methylphenoxy)-4H--1,2,6-thiadiazin-4-one]	100	43	91	73	100	
Cc1cc(Cl)ccc1Oc1nsnc(Cl)c1=O [Compound 55, 3-chloro-5-(4-chloro-2-methylphenoxy)-4H--1,2,6-thiadiazin-4-one]	100	100	100	91	100	
N#Cc1ccc(Oc2nsnc(Cl)c2=O)cc1 [Compound 10, 3-chloro-5-(4-cyanophenoxy)-4H--1,2,6-thiadiazin-4-one]	100	57	52	100	100	
O=c1c(Cl)nsnc1Oc1ccc(Cl)cc1Cl [Compound 17, 3-chloro-5-(2,4-dichlorophenoxy)-4H--1,2,6-thiadiazin-4-one]	100	100	100	100	100	
Cc1cc(Cl)c(Oc2nsnc(Cl)c2=O)cc1C [Compound 58, 3-chloro-5-[(2-chloro-4,5-dimethyl)phenoxy]-4H--1,2,6-thiadiazin-4-one]	100	54	54	69	69	
O=c1c(Cl)nsnc1Oc1cccc2ccccc12 [Compound 32, 3-chloro-5(1-naphthoxy)-4H-1,2,6-thiadiazin-4-one]	90	100	63	100	100	
CC(C)(C)c1ccc(Oc2nsnc(Cl)c2=O)cc1 [Compound 4, 3-chloro-5-(4-tert-butylphnoxy)-4H--1,2,6-thiadiazin-4-one]	100	0	0	24	33	

Molecule	pest or weed control at 150 ppm (Uromyces phaseoli) [%]	inhibition at 5 ppm (Helminthosporium oryzae; [1]) [%]	inhibition at 10 ppm (Helminthosporium oryzae; [2]) [%]	inhibition at 20 ppm (Helminthosporium oryzae; [3]) [%]	inhibition at 40 ppm (Helminthosporium oryzae; [4]) [%]	also measured
Cc1ccc(Cl)c(Oc2nsnc(Cl)c2=O)c1 [Compound 56, 3-chloro-5-[(2-chloro-5-methyl)phenoxy]-4H--1,2,6-thiadiazin-4-one]	0	67	100	100	100	
O=c1c(Cl)nsnc1Oc1ccc(Cl)c(Cl)c1 [Compound 16, 3-chloro-5-(3,4-dichlorophenoxy)-4H--1,2,6-thiadiazin-4-one]	90	64	55	55	82	
Nc1ccc(Oc2nsnc(Cl)c2=O)cc1 [Compound 26, 5-(4-aminophenoxy)-3-chloro-4H--1,2,6-thiadiazin-4-one]	0			57		Percent Fungus Growth Inhibition (Helminthosporium oryzae; 5 ppm): 43%; Percent Fungus Growth Inhibition (Helminthosporium oryzae; 40 ppm): 100%
Cc1ccc(Oc2nsnc(Cl)c2=O)cc1 [Compound 3, 3-chloro-5-(4-methylphenoxy)-4H--1,2,6-thiadiazin-4-one]	100	55	64	100	100	
CC(=O)Nc1ccc(Oc2nsnc(Cl)c2=O)cc1 [Compound 8, 5-(4-acetylaminophenoxy)-3-chloro-4H--1,2,6-thiadiazin-4-one]	100	24	33	0	81	
Cc1ccc(Oc2nsnc(Cl)c2=O)c(Br)c1 [Compound 57, 3-[(2-bromo-4-methyl)-phenoxy]-5-chloro-4H--1,2,6-thiadiazin-4-one]	100	100	100	100	100	
O=c1c(Cl)nsnc1Oc1c(Cl)cccc1Cl [Compound 18, 3-chloro-5-(2,6-dichlorophenoxy)-4H--1,2,6-thiadiazin-4-one]	100	86	86	100	100	
O=c1c(Cl)nsnc1Oc1c(Cl)c(Cl)c(Cl)c(Cl)c1Cl [Compound 31, 3-chloro-5-(pentachlorophenoxy)-4H--1,2,6-thiadiazine-4-one]	0	57	86	57	100	
O=c1c(Cl)nsnc1Oc1ccc(Cl)cc1 [Compound 12, 3-chloro-5-(4-chlorophenoxy)-4H--1,2,6-thiadiazin-4-one]	100	59	59	100	100	
O=c1c(Cl)nsnc1Oc1cccc(Cl)c1Cl [Compound 19, 3-chloro-5-(2,3-dichlorophenoxy)-4H--1,2,6-thiadiazin-4-one]	0	100	90	100	100	
CSc1ccc(Oc2nsnc(Cl)c2=O)cc1 [Compound 39, 3-chloro-5-[(4-methylthio)phenoxy]-4H-1,2,6,-thiadiazin-4-one]	98	73	87	100	80	
O=c1c(Cl)nsnc1Oc1c(Cl)cc(Cl)cc1Cl [Compound 30, 3-chloro-5-(2,4,6-trichlorophenoxy)-4H--1,2,6-thiadiazin-4-one]	100	59	100	100	100	
CC(=O)Nc1ccccc1Oc1nsnc(Cl)c1=O [Compound 43, 3-[(2-acetylamino)-phenoxy]-5-chloro-4H--1,2,6-thiadiazin-4-one]	0	61	70	65	91	
CNC(=O)Nc1ccc(Oc2nsnc(Cl)c2=O)cc1 [Compound 28, 3-chloro-5-[4-(3-methylureido)-phenoxy]-4H--1,2,6-thiadiazin-4-one]	0	29	29	21	64	
CC(=O)c1ccccc1Oc1nsnc(Cl)c1=O [Compound 49, 3-(2-acetylphenoxy)-5-chloro-4H--1,2,6-thiadiazin-4-one]	100	74	100	100	100	
COc1ccc(Cl)c(Oc2nsnc(Cl)c2=O)c1 [Compound 51, 3-chloro-5-[(2-chloro-5-methoxy)phenoxy]-4H--1,2,6-thiadiazin-4-one]	0	78	100	100	100	
Nc1ccc(Oc2nsnc(Cl)c2=O)cc1 [Compound 27, 5-(4-aminophenoxy)-3-chloro-4H--1,2,6-thiadiazine-4-one hydrochloride]						Percent Fungus Growth Inhibition (Helminthosporium oryzae; 5 ppm, hydrochloride): 0%; Percent Fungus Growth Inhibition (Helminthosporium oryzae; 10 ppm, hydrochloride): 21%; Percent Fungus Growth Inhibition (Helminthosporium oryzae; 20 ppm, hydrochloride): 43%; Percent Fungus Growth Inhibition (Helminthosporium oryzae; 40 ppm, hydrochloride): 57%
